Assay results from PMC3433420 (PLoS ONE, 2012).
Residues, ends and D or L forms follow the SMILES beside them.

Assays:
RASA1-N SH2 domain = molecular target: T1, RASA1-N SH2 domain (Homo sapiens, UniProt P20936); assay: FP saturation binding assay
T1 sequence (P20936 181-272 limits assumed): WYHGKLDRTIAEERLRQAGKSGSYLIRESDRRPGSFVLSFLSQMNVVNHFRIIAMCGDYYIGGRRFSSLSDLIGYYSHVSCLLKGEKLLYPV

[1] = molecular target: T2, PLCG1-NC tandem SH2 domains (Homo sapiens, UniProt P19174); assay: FP saturation binding assay; conditions: high-confidence ErbB interactions
T2 construct: the tandem protein was included in our analysis with all internal amino acids linking the domains; 6X His; thioredoxin; made in house; host or cells: E. coli BL21(DE3)pLysS
T2 sequence (P19174 550-756 limits assumed): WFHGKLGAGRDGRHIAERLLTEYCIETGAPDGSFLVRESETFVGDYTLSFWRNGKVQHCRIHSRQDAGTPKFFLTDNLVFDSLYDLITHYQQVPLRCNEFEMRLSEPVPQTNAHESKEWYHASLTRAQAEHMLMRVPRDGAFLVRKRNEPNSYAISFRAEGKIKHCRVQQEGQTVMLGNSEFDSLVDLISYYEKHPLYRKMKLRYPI

PLCG1-C SH2 domain = molecular target: T3, PLCG1-C SH2 domain (Homo sapiens, UniProt P19174); assay: biochemical; format: binding; conditions: high-confidence ErbB interactions
T3 construct: The 6X His-tagged SH2 domain proteins used in the assay, PLCG1-C, SHC4, VAV2; thioredoxin; made in house; host or cells: E. coli BL21(DE3)pLysS
T3 sequence (P19174 668-756 limits assumed): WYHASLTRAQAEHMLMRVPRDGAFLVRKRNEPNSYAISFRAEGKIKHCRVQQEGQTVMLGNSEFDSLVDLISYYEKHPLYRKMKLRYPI

PIK3R1-N SH2 domain = molecular target: T4, PIK3R1-N SH2 domain (Homo sapiens, UniProt P27986); assay: biochemical; format: binding; conditions: high-confidence ErbB interactions
T4 construct: thioredoxin; made in house; host or cells: E. coli BL21(DE3)pLysS

[2] = molecular target: T5, PTPN11-NC tandem SH2 domains (Homo sapiens, UniProt Q06124); assay: FP saturation binding assay
T5 sequence (Q06124 6-216 limits assumed): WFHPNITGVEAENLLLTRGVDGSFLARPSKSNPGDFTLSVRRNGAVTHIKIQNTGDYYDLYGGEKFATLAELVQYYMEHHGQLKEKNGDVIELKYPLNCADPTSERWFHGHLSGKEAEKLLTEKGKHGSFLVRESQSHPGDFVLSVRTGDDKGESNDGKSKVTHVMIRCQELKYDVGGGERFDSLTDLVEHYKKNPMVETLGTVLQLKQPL

[3] = protein PLCG1-NC, FP, mean of replicate hits
[4] = Protein PIK3R1-N, FP saturation binding, mean over replicate hits
[5] = Protein PLCG1-NC, FP saturation binding, mean over replicate hits

T4 sequence (P27986 333-428 limits assumed): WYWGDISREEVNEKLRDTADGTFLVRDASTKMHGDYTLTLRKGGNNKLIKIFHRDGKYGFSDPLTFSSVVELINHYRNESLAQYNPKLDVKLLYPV

Compound	Kd (RASA1-N SH2 domain) [µM]	Kd [1, 3] [nM]	Kd [2] [µM]	Kd [1, 5] [nM]	further results
CSCC[C@H](NC(=O)[C@H](Cc1ccc(OP(=O)(O)O)cc1)NC(=O)CNC(=O)[C@H](CCC(=O)O)NC(=O)[C@H](CCC(=O)O)NC(=O)[C@H](CC(=O)O)NC(=O)[C@H](CC(C)C)NC(=O)[C@H](CCC(=O)O)NC(=O)CNC(=O)[C@H](CCCNC(=N)N)NC(=O)[C@@H]1CCCN1)C(=O)N[C@H](C(=O)N1CCC[C@H]1C(=O)N[C@@H](CCSC)C(=O)N[C@@H](CCCNC(=N)N)C(=O)N[C@@H](CC(=O)O)C(=O)N[C@@H](CCCCN)C(=O)N[C@@H](CC(=O)O)C(=O)O)[C@@H](C)O [ErbB4 1150 18-mer] (HELM PEPTIDE1{P.R.G.E.L.D.E.E.G.[O=C([C@H](Cc1ccc(OP(=O)(O)O)cc1)N[*:1])[*:2]].M.T.P.M.R.D.K.D}$$$$V2.0)	0.61	2820			Kd (PLCG1-C SH2 domain; protein PLCG1-C, FP, mean of replicate hits): 3100 nM
CC(C)C[C@H](NC(=O)[C@H](Cc1ccc(OP(=O)(O)O)cc1)NC(=O)[C@H](CC(C)C)NC(=O)[C@@H]1CCCN1C(=O)[C@H](CCC(=O)O)NC(=O)[C@H](CC(N)=O)NC(=O)[C@@H](NC(=O)[C@H](Cc1ccc(O)cc1)NC(=O)[C@H](CCC(=O)O)NC(=O)[C@H](CC(=O)O)NC(=O)[C@@H](N)CCC(=O)O)C(C)C)C(=O)N[C@@H](CC(N)=O)C(=O)N[C@H](C(=O)N[C@@H](Cc1ccccc1)C(=O)N[C@@H](C)C(=O)N[C@@H](CC(N)=O)C(=O)N[C@H](C(=O)N[C@@H](CC(=O)O)C(=O)O)[C@@H](C)O)[C@@H](C)O [ErbB4 1208 18-mer] (HELM PEPTIDE1{E.D.E.Y.V.N.E.P.L.[O=C([C@H](Cc1ccc(OP(=O)(O)O)cc1)N[*:1])[*:2]].L.N.T.F.A.N.T.D}$$$$V2.0)	6.4				Kd ([1]; protein PLCG1-NC, mean of replicate hits): 970 nM; Kd (PLCG1-C SH2 domain; protein PLCG1-C, mean of replicate hits): 2070 nM
CSCC[C@H](NC(=O)[C@H](CCC(=O)O)NC(=O)[C@H](CCC(=O)O)NC(=O)[C@H](Cc1ccc(OP(=O)(O)O)cc1)NC(=O)CNC(=O)[C@H](CCC(N)=O)NC(=O)[C@H](CCC(=O)O)NC(=O)[C@@H](N)CO)C(=O)N[C@@H](CCCNC(=N)N)C(=O)N[C@@H](C)C(=O)N[C@@H](Cc1ccccc1)C(=O)N[C@@H](CCC(N)=O)C(=O)N[C@@H](CC(=O)O)C(=O)O [ErbB3 1289 13-mer] (HELM PEPTIDE1{S.E.Q.G.[O=C([C@H](Cc1ccc(OP(=O)(O)O)cc1)N[*:1])[*:2]].E.E.M.R.A.F.Q.D}$$$$V2.0)	8.83	6140			Kd (PIK3R1-N SH2 domain; protein PIK3R1-N, FP, mean of replicate hits): 0.25 µM
CC(C)C[C@H](NC(=O)[C@H](Cc1ccc(OP(=O)(O)O)cc1)NC(=O)[C@H](CCC(=O)O)NC(=O)[C@H](CCC(=O)O)NC(=O)[C@H](C)NC(=O)[C@@H](N)CC(=O)O)C(=O)N[C@H](C(=O)N1CCC[C@H]1C(=O)N[C@@H](CCC(N)=O)C(=O)N[C@@H](CCC(N)=O)C(=O)NCC(=O)N[C@@H](Cc1ccccc1)C(=O)N[C@@H](CC(=O)O)C(=O)O)C(C)C [ErbB2 1023 13-mer] (HELM PEPTIDE1{D.A.E.E.[O=C([C@H](Cc1ccc(OP(=O)(O)O)cc1)N[*:1])[*:2]].L.V.P.Q.Q.G.F.D}$$$$V2.0)	5.49		10.6	1300	Kd (PIK3R1-N SH2 domain; [4]): 15.8 µM
CC(C)C[C@H](NC(=O)[C@H](CC(N)=O)NC(=O)[C@@H](N)CC(=O)O)C(=O)N[C@@H](Cc1ccc(O)cc1)C(=O)N[C@@H](Cc1ccc(OP(=O)(O)O)cc1)C(=O)N[C@@H](Cc1c[nH]c2ccccc12)C(=O)N[C@@H](CC(=O)O)C(=O)N[C@@H](CCC(N)=O)C(=O)N[C@@H](CC(=O)O)C(=O)N1CCC[C@H]1C(=O)N1CCC[C@H]1C(=O)N[C@@H](CCC(=O)O)C(=O)N[C@@H](CC(=O)O)C(=O)O [ErbB2 1222 13-mer] (HELM PEPTIDE1{D.N.L.Y.[O=C([C@H](Cc1ccc(OP(=O)(O)O)cc1)N[*:1])[*:2]].W.D.Q.D.P.P.E.D}$$$$V2.0)	4.29		9.45	1280	Kd (PIK3R1-N SH2 domain; [4]): 10.7 µM; Kd (PLCG1-C SH2 domain; Protein PLCG1-C, FP saturation binding, mean over replicate hits): 780 nM
CC(C)[C@H](NC(=O)[C@H](CC(=O)O)NC(=O)[C@@H]1CCCN1C(=O)[C@H](CCC(N)=O)NC(=O)[C@H](CC(N)=O)NC(=O)[C@@H](NC(=O)[C@H](Cc1ccc(OP(=O)(O)O)cc1)NC(=O)[C@H](CCC(=O)O)NC(=O)[C@@H]1CCCN1C(=O)[C@H](CCC(N)=O)NC(=O)[C@@H]1CCCN1)C(C)C)C(=O)N[C@@H](CCCNC(=N)N)C(=O)N[C@@H](CC(=O)O)C(=O)O [ErbB2 1139 13-mer] (HELM PEPTIDE1{P.Q.P.E.[O=C([C@H](Cc1ccc(OP(=O)(O)O)cc1)N[*:1])[*:2]].V.N.Q.P.D.V.R.D}$$$$V2.0)			8.71	3380	
CSCC[C@H](NC(=O)[C@H](Cc1ccc(OP(=O)(O)O)cc1)NC(=O)[C@H](CCC(=O)O)NC(=O)[C@H](Cc1ccc(O)cc1)NC(=O)CNC(=O)[C@@H](N)CC(C)C)C(=O)N[C@@H](CC(=O)O)C(=O)N[C@H](C(=O)NCC(=O)N[C@@H](CO)C(=O)N[C@@H](CC(=O)O)C(=O)N[C@@H](CC(C)C)C(=O)N[C@@H](CC(=O)O)C(=O)O)C(C)C [ErbB3 1224 13-mer] (HELM PEPTIDE1{L.G.Y.E.[O=C([C@H](Cc1ccc(OP(=O)(O)O)cc1)N[*:1])[*:2]].M.D.V.G.S.D.L.D}$$$$V2.0)	1.24	4220			
